We go through two compounds from patent publication US9845482B2, “Compositions and methods for enhancing bioenergetic status in female germ cells” (The General Hospital Corporation, priority 2011, dated 2017).

Entries after “also recorded” stand apart in the source; their conditions may differ. Read-outs that look alike come from different tables or passages of the source.

Assay [1] deals with murine oogonial stem cells (OSCs). Nature of the assay: NAD+/NADH quantitation in murine OSCs treated with NMN. The format is cell-based. The following applies: NMN added at 12 h and 6 h prior to analysis. How it is done: FIGS. 39A-39C are graphs showing that nicotinamide mononucleotides raise cellular NAD^+ and NAD+/NADH in murine oogonial stem cells (OSCs). Oogonial stem cells were isolated from dissociated ovaries using a FACS based sorting protocol to purify OSCs free of contaminating oocytes (see Example 1). Cells were maintained in culture medium consisted of minimum essential medium α (MEMα), 10% FBS, 1 mM sodium pyruvate, 1 mM non-essential amino acids, 2 mM L-glutamine, 0.1 mM β-mercaptoethanol (Sigma Aldrich Corporation, St. Louis, Mo., USA), 10 ng/ml-1 LIF (Millipore), 1× N-2 MAX Media Supplement (R&D) 10 ng/ml EGF (Epidermal growth factor, Recombinant human; Gibco Division of ThermoFisher Scientific, Waltham, Mass., USA), 40 ng/ml human GDNF (glial cell line-derived neurotrophic factor; R&D systems), 1 ng/ml human bFGF (basic fibroblast growth factor; Gibco Division of ThermoFisher Scientific, Waltham, Mass., USA).
Oogonial stem cells were isolated from dissociated ovaries using a FACS based sorting protocol to purify OSCs free of contaminating oocytes (for details, see Example 1), Cells were maintained in culture medium consisted of minimum essential medium α (MEMα), 10% FBS, 1 mM sodium pyruvate, 1 mM […], 2 mM L-1-glutamine, 0.1 mM β-mercaptoethanol (Sigma), 10 ng/ml-1 LIF (Millipore), 1× N-2 MAX Media Supplement (R&D) 10 ng/ml EGF (Epidermal growth factor, Recombinant human; Gibco Division of Thermofisher Scientific, Waltham, Mass., USA), 40 ng/nil human GDNF (glial cell line-derived neurotrophic factor; R&D systems), 1 ng/ml human bFGF (basic fibroblast growth factor; Gibco Division of Thermofisher Scientific, Waltham, Mass., USA)
For all experiments 25,000 cells were plated in each well of a 24 well plate. Cells were allowed to attach for twenty-four hours and then were treated with NMN (β-Nicotinamide mononucleotide; Sigma). Unless otherwise stated, NMN was added twice to the cells, first at twelve hours and then again at six hours prior to analysis (12+6 h). Mitochondrial DNA Copy number was analysed as follows. Total cellular DNA was isolated from cells at the indicated time points using DNeasy Blood & Tissue Kit (Qiagen) according to the manufacturer's instructions. Mitochondrial DNA copy number was quantified using LIGHTCYCLER 480 SYBR® Green I Master (Roche Applied Science, Penzberg, Germany) using the following primers on a LIGHTCYCLER480 PCR machine (Roche Applied Science (Penzberg, Germany).
OSCs and oocytes treated with an NAD precursor (e.g. […] ie. “NMN”, see FIG. 38) had increased NAD^+, NAD^+:NADH, and mitochondrial DNA content (FIG. 40).

In another assay the test system is murine OSCs. Nature of the assay: Mitochondrial DNA copy number in murine OSCs treated with NMN. The format is cell-based. From the text: FIG. 40 is a graph showing that nicotinamide mononucleotide increases mitochondrial DNA content in murine OSCs. Total cellular DNA was isolated from cells at the indicated time points using DNEASY® Blood & Tissue Kit (Qiagen, Venlo, The Netherlands) according to the manufacturer's instructions. Mt DNA copy number was quantified using LIGHTCYCLER®480 SYBR® Green I Master (Roche Applied Science, Penzberg, Germany) using a LIGHTCYCLER®480 PCR machine (Roche Applied Science, Penzberg, Germany). […]
For all experiments 25,000 cells were plated in each well of a 24 well plate. […] Mitochondrial DNA Copy number was analysed as follows. […] Mitochondrial DNA copy number was quantified using LIGHTCYCLER 480 SYBR® Green I Master (Roche Applied Science, Penzberg, Germany) using the following primers on a LIGHTCYCLER480 PCR machine (Roche Applied Science (Penzberg, Germany).

The test system of assay [2] is cultured murine oogonial stem cells. Nature of the assay: Spontaneous oocyte formation in cultured murine OSCs after NMN. It is filed as cell-based. The following applies: 25,000 OSCs per well of a 24-well plate. How it is done:
FIG. 41 is a graph showing that nicotinamide mononucleotide increases spontaneous oocyte formation in cultured murine oogonial stem cells. For assessment of spontaneous oocyte formation, each well of a 24-well plate was seeded with 25,000 OSCs, and the number of oocytes formed and released into the medium per well was assessed the second day after seeding as well as the designated time points after NMN treatment.
Each well of a 24-well plate was seeded with 25,000 OSCs. The number of oocytes formed and released into the medium per well was assessed the second day after seeding as well as the designated time points after NMN treatment. […] NMN treatment is also expected to enhance the function of OCSsOSCs, oocytes, granulose cells, and blood vessels in the ovary.

The test system of the next assay is young and old mice. Nature of the assay: NAD+ levels in vivo after systemic NMN. How it is done: FIG. 42 is a graph showing that the NAD^+ precursor NMN raises NAD^+ levels in vivo in young and old mice. Cardiac [NAD^+] declines with age and is reversed by NMN treatment (n=3; 200 mg·kg·d. I.P. for 1 week).
(§1) NMN is delivered by intraperitoneal (I.P.) injection and raises NAD levels in brain, heart and skeletal muscle ˜30-100%. NMN increases mitochondrial function in C2C12 cells in a SIRT1-dependent manner (FIGS. 43C, D). sh Ct1=scrambled shRNA, Sh SIRT1=shRNA against SIRT1.
(§2) NMN and other compounds that increase NAD^+ levels are useful for increasing fertility or otherwise reducing or reversing infertility in a female subject. In one embodiment, such compounds are delivered to a subject orally, by intraperitoneal injection (IP), or subcutaneously to increase the probability that the subject will conceive and deliver healthy offspring. Systemic administration of the NAD^+ precursor NMN raised NAD^+ levels in vivo in young and old mice. Cardiac [NAD^+] declines with age. This decline in NAD^+ was reversed by NMN treatment (n=3; 200 mg·kg·d. I.P. for 1 week)(FIG. 42). […] In another embodiment, NMN and other compounds that increase NAD^+ levels are delivered to an OSC, oocyte, blasotcyst, sperm, or isolated mitochondria in vitro. For example, such compounds are delivered to a germ cell prior to, during or following IVF. In another embodiment, a compound of the invention is used to enhance the yield or preservation of mitochondria from an OSC, oocyte, blasotcyst, sperm, or isolated mitochondria in vitro.

Assay [3] deals with skeletal muscle of 24-month old mice. The experiment in a line: Mitochondrial function in vivo after NMN. The following applies: 1 week of treatment, I.P.
Excerpt: as §1, §2

Another assay deals with C2C12 cells. The experiment in a line: Mitochondrial function in C2C12 cells with NMN (scrambled vs SIRT1 shRNA). The following applies: SIRT1-dependent manner. It is filed as cell-based.
Excerpt: as §1

Another assay deals with OSCs from mice. The experiment in a line: Screen of mouse OSCs for compounds that enhance mitochondrial function (mtDNA, ATP, mitochondrial mass, membrane potential, gene expression). The following applies: 24 hours. The format is cell-based. From the text: Female infertility due to chemotherapy, aging and premature ovarian failure (POF) is due in part to a decline in mitochondrial function in oocytes and OSCs. Accordingly, OSCs from mice were used to screen for small compounds that enhance mitochondrial function (“bioenergetic status”) in female germline cells. Assays for enhancing mitochondrial function included mtDNA content, ATP, NAD+/NADH, mitochondrial mass, mitochondrial membrane potential, and gene expression of known mitochondrial mass regulators and electron transport chain components.
All the compounds were dissolved in DMSO. For screening purposes the cells were treated with the vehicle (0.001% DMSO) or with 25 or 50 μM of each compound (except for berberine, which the concentrations used for the screen were 5 μM and 25 μM) for 24 hours. For validation of the top 6 hits, cells were treated with vehicle (0.001% DMSO) or either 5 or 25 μM of each compound for 24 hours. For the gene expression profile, the cells were treated with the concentration that was considered to work better in the previous validation assays.
Mitochondrial membrane potential was measured with a fluorescent probe, Tetramethylrhodamine methyl ester (TMRM) (Sigma) as described before (Rolo A. P. Biochim. Biophys. Acta 2003 1637: 127-132). Briefly the cells were loaded with 6.6 μM TMRM in HBSS buffer at 37° C. for 15 minutes in the dark. The supernatant was then aspirated, and the cells returned to the original volume with KHH. TMRM is a membrane-permeable cationic fluorophore that accumulates electrophoretically in mitochondria in proportion to their mitochondrial membrane potential (Ehrenberg B. V. et al. Biophys. J. 1988 53:785-794). Cell suspensions (200 μl containing 10^5 cells) were loaded into 96-well plates and fluorescence measured using excitation and emission wavelengths of 485 and 590 nm, respectively. Mitochondrial membrane potential was estimated, taking into account the complete depolarization caused by carbonyl cyanide p-(trifluoromethoxy)phenylhydrazone (FCCP).
For mtDNA analysis, total DNA was extracted with DNeasy blood and tissue kit (QIAGEN). mtDNA was amplified using primers specific for the mitochondrial cytochrome c oxidase subunit 2 (COX2) gene and normalized to genomic DNA by amplification of the ribosomal protein s18 (rps18) nuclear gene. Primers were designed using the IDT software (IDT).
ATP content was measured using a luciferase-based assay with a commercial kit according to the manufacturer's instructions (Roche Applied Science, Penzberg, Germany) and normalized to protein content in each sample.
Mitochondrial mass was evaluated using the fluorescent probe N-nonyl acridine orange (NAO), briefly the cells were incubated in culture media containing 10 nM of NAO for 30 minutes at 37° C. in the dark. The cells were then trypsinized and resuspended in culture media without NAO. The NAO fluorescence intensity was then determined by flow cytometry on the FACSCALIBUR® (BD Biosciences, San Jose, Calif., USA) using the 488 nm laser.
For gene expression analysis, RNA from skeletal muscle tissue and C2C12 cells were extracted with RNeasy mini kit (QIAGEN) according to the instructions and quantified using the NanoDrop 1000 spectrophotometer (Thermo Scientific). cDNA was synthesized with the iSCRIP cDNA synthesis kit (BioRad) using 200 ng of RNA. Quantitative RT-PCR reactions were performed using 1 μM of primers and LIGHTCYCLER® 480 SYBR® Green Master (Roche Applied Science, Penzberg, Germany) on an LIGHTCYCLER® 480 detection system (Roche Applied Science, Penzberg, Germany). Calculations were performed by a comparative method (2-ΔΔCT) using actin as an internal control. Primers were designed using the IDT software (IDT).

The test system of the next assay is Mouse OSCs. Nature of the assay: NAD+ and NADH levels in mouse OSCs treated with mitochondrial enhancers. It is filed as cell-based. The following applies: 24 hours. As to the method: FIG. 35 depicts levels of NAD+ (A) and NADH (B) in OSCs treated with mitochondrial enhancers. Mouse OSCs maintained in culture (Zou et al., Nat Cell Biol 2009 11:631-636) were exposed to the indicated test compounds for 24 hours and then assessed for levels of NAD+ and NADH. Female infertility due to chemotherapy, aging and premature ovarian failure (POF) is due in part to a decline in mitochondrial function in oocytes and OSCs. Accordingly, OSCs from mice were used to screen for small compounds that enhance mitochondrial function (“bioenergetic status”) in female germline cells. Assays for enhancing mitochondrial function included mtDNA content, ATP, NAD+/NADH, mitochondrial mass, mitochondrial membrane potential, and gene expression of known mitochondrial mass regulators and electron transport chain components. All the compounds were dissolved in DMSO. For screening purposes the cells were treated with the vehicle (0.001% DMSO) or with 25 or 50 μM of each compound (except for berberine, which the concentrations used for the screen were 5 μM and 25 μM) for 24 hours. For validation of the top 6 hits, cells were treated with vehicle (0.001% DMSO) or either 5 or 25 μM of each compound for 24 hours. For the gene expression profile, the cells were treated with the concentration that was considered to work better in the previous validation assays.

[4] abbreviates: listed as nicotinamide mononucleotides.
[5] abbreviates: listed as nicotinamide mononucleotide.

For the compound `NC(=O)c1ccc[n+]([C@@H]2O[C@H](COP(=O)([O-])O)[C@@H](O)[C@H]2O)c1` [NMN, β-Nicotinamide mononucleotide], the “NAD+/NADH” value is reported as “increased” in assay [1] and “raise” in assay [1] (setting [4]). The results for the “cellular NAD^+” value in assay [1] and in assay [1] (setting [4]) were “increased” and “raise”, respectively. The “mitochondrial DNA content” value in the assay on murine OSCs was “increased”; with murine OSCs (setting [5]), “increases”. In addition, the “spontaneous oocyte formation (rate of egg formation, EFA)” value in assay [2] is given as “increased”; in assay [2] (setting [5]), “increases”. In addition, the “decline of cardiac [NAD^+] with age” value with young and old mice (200 mg·kg·d. I.P. for 1 week, n=3) was “reversed”. The “raise of NAD levels in brain, heart and skeletal muscle” value in the assay with young and old mice (intraperitoneal (I.P.) injection) is given as 30-100%. For the same compound, in the assay with young and old mice (young and old mice, systemic administration), the “NAD^+ levels in vivo” value was “raises”. The “mitochondrial function in vivo (decline in skeletal muscle of 24-month old mice)” value in assay [3] is “restorative effect; also recorded: completely reversed”. In the assay on C2C12 cells, the “mitochondrial function in C2C12 cells” value is “increases”.

Consider `N#CC(C#N)=Cc1ccc(O)cc1` [tyrphostin 8, 2[(4-hydroxyphenyl)methylidene]propanedinitrile], for which the mitochondrial parameters entry in the assay on OSCs from mice was “increase mitochondrial parameters in a beneficial way”. In the assay on OSCs from mice (25 or 50 μM (berberine 5 μM and 25 μM)), the “activity above the baseline (DMSO alone), scored as a positive result” value is reported as “activity above the baseline”. The “NAD^+ levels” value in the assay on Mouse OSCs is “raise”.
